Like-named read-outs stand apart in the source and are kept apart here.
Tests used:
Acinetobacter baumanii = assay: Checkerboard MIC, Acinetobacter baumanii; format: cell-based, Acinetobacter baumannii; settings: for MIC: Acinetobacter baumannii, single drug, read-out: MIC when taken individually
Procedure: (§1) The synergistic outcome of the combination was recorded as a concave curve.
(§2) The checkerboard array was performed in order to find the MIC's of selected antibacterial agents against the strains of Pseudomonas aeruginosa, Acinetobacter baumannii, Klebsiella pneumoniae and MRSA (Methicillin Resistant Staphylococcus aureus).
(§3) • 1. A total of 50 μl of Mueller-Hinton broth was distributed into each well of the micro dilution plates. • 2. The first antibiotic (A) of the combination was serially twofold diluted along the Y-axis, while the second antibiotic (B) was diluted along the X-axis. • 3. An inoculum equal to a 0.5 McFarland turbidity standard was prepared from each culture in sterile saline. • 4. Each micro titer well was inoculated with 100 μl of a bacterial inoculum and the plate was loaded on ELISA plate reader (37° C. for 24 hrs). Formula for ΣFIC (Fractional inhibitory concentration): […]
(§4) Where FIC A is the MIC of drug A in the combination/MIC of drug A alone,
(§5) FIC B is the MIC of drug B in the combination/MIC of drug B alone.
(§6) The combination is considered synergistic when the ΣFIC is ≦0.5, indifferent when the ΣFIC is >0.5 to <2, and antagonistic when the ΣFIC is ≧2.

[1] = system: Methicillin Resistant Staphylococcus aureus (MRSA); assay: Checkerboard MIC, MRSA; format: cell-based; settings: for MIC: Staphylococcus aureus, MRSA, read-out: MIC when taken individually
Procedure: as §1, §2, §3, §4, §5, §6

[2] = system: Klebsiella pneumoniae (VIM producing); assay: Checkerboard MIC, Klebsiella pneumoniae; format: cell-based; settings: for MIC: Klebsiella pneumoniae, single drug, read-out: MIC when taken individually
Procedure: as §2, §3, §4, §5, §6

[3] = system: Pseudomonas aeruginosa (PA1 - ESBL producing); assay: Checkerboard MIC, Pseudomonas aeruginosa PA1; format: cell-based; settings: for MIC in combination: Ertapenem + Aztreonam combination, Table 1; for MIC: Pseudomonas aeruginosa, PA1, read-out: MIC when taken individually
Procedure: as §1, §2, §3, §4, §5, §6

[4] = system: Pseudomonas aeruginosa ATCC 27853; assay: Checkerboard MIC, Pseudomonas aeruginosa ATCC 27853; format: cell-based; settings: for MIC in combination: Meropenem + Aztreonam combination, Table 6; for MIC: Pseudomonas aeruginosa, ATCC27853, read-out: MIC when taken individually
Procedure: as §2, §3, §4, §5, §6

[5] = Ertapenem/Aztreonam checkerboard, Table 3
[6] = Ertapenem 0.61 + Aztreonam 312.5
[7] = Ertapenem 1.22 + Aztreonam 156.25
[8] = Ertapenem 2.44 + Aztreonam 78.12
[9] = Ertapenem + Aztreonam combination, Table 3
[10] = Ertapenem 4.88 + Aztreonam 39.06
[11] = Ertapenem 9.76 + Aztreonam 19.53
[12] = Ertapenem 19.53 + Aztreonam 9.76
[13] = Ertapenem + Aztreonam combination, Table 4
[14] = Ertapenem 1.22 + Aztreonam 2.44
[15] = Ertapenem 2.44 + Aztreonam 4.88
[16] = Ertapenem 4.88 + Aztreonam 9.76
[17] = Ertapenem + Aztreonam combination, Table 2
[18] = Meropenem/Aztreonam checkerboard, Table 8
[19] = Meropenem 1.22 + Aztreonam 9.76
[20] = Meropenem 2.44 + Aztreonam 4.88
[21] = Meropenem + Aztreonam combination, Table 8
[22] = Meropenem 6.1 + Aztreonam 19.53
[23] = Meropenem 12.2 + Aztreonam 9.76
[24] = Meropenem + Aztreonam combination, Table 7
[25] = Meropenem 0.0488 + Aztreonam 19.53
[26] = Meropenem 0.097 + Aztreonam 9.76
[27] = Meropenem/Aztreonam checkerboard, Table 5
[28] = Meropenem 0.097 + Aztreonam 19.53
[29] = Meropenem 0.195 + Aztreonam 9.76
[30] = Meropenem + Aztreonam combination, Table 5

For `C[C@@H](O)[C@H]1C(=O)N2C(C(=O)O)=C(S[C@@H]3CN[C@H](C(=O)Nc4cccc(C(=O)O)c4)C3)[C@H](C)[C@H]12` [Ertapenem], which MIC (Acinetobacter baumanii; [5]) is on record?
The MIC was 9.76 mg/L.

What about the “FIC of Ertapenem (x-co-ordinate)” value (Acinetobacter baumanii; [6]) of the same compound?
Its value is “(0.0625,”.

What about the “FIC of Ertapenem (x-co-ordinate)” value (Acinetobacter baumanii; [7]) of the same compound?
The value was 0.125.

What about the “FIC of Ertapenem (x-co-ordinate)” value (Acinetobacter baumanii; [8]) of the same compound?
The value was 0.25.

What about the MIC in combination (Acinetobacter baumanii; [9]) of the same compound?
Its MIC in combination is 0.61 mg/L.

What about the “FIC of Ertapenem (x-co-ordinate)” value [1, 10] of the same compound?
Its value is 0.5.

What about the “FIC of Ertapenem (x-co-ordinate)” value [1, 11] of the same compound?
The value was 1.

And the “FIC of Ertapenem (x-co-ordinate)” value [1, 12]?
The value was 2.

And the MIC in combination [1, 13]?
Its MIC in combination is 4.88 mg/L.

What about the MIC [1] of the same compound?
Its MIC is 9.76 mg/L.

And the “FIC of Ertapenem (x-co-ordinate)” value [2, 14]?
Its value is 0.25.

What about the “FIC of Ertapenem (x-co-ordinate)” value [2, 15] of the same compound?
Its value is 0.5.

And the “FIC of Ertapenem (x-co-ordinate)” value [2, 16]?
The value was “(1.0,”.

What about the “FIC of Ertapenem (x-co-ordinate)” value [2, 11] of the same compound?
Its value is “(2.0,”.

And the MIC in combination [2, 17]?
Its MIC in combination is 4.88 mg/L.

What about the MIC ([2]; Ertapenem/Aztreonam checkerboard, Table 2) of the same compound?
Its MIC is 1.22 mg/L.

What about the “FIC of Ertapenem (x-co-ordinate)” value [3, 10] of the same compound?
Its value is 0.5.

And the “FIC of Ertapenem (x-co-ordinate)” value [3, 11]?
The value was 1.0.

And the “FIC of Ertapenem (x-co-ordinate)” value [3, 12]?
The value was 2.0.

And the MIC in combination [3]?
The MIC in combination was 4.88 mg/L.

What about the MIC [3] of the same compound?
The MIC was 9.76 mg/L.

What does the source list for `C[C@H]1[C@H](NC(=O)/C(=N\OC(C)(C)C(=O)O)c2csc(N)n2)C(=O)N1S(=O)(=O)O` [Aztreonam]?
MIC (Acinetobacter baumanii; [5]): 10000 mg/L; MIC (Acinetobacter baumanii; [18]): 5000 mg/L; FIC of Aztreonam (y-co-ordinate) (Acinetobacter baumanii; [6]): 0.0313); FIC of Aztreonam (y-co-ordinate) (Acinetobacter baumanii; [7]): 0.0156; FIC of Aztreonam (y-co-ordinate) (Acinetobacter baumanii; [8]): 0.0078; MIC in combination (Acinetobacter baumanii; [9]): 78.12 mg/L; FIC of Aztreonam (y-co-ordinate) (Acinetobacter baumanii; [19]): 0.0039; FIC of Aztreonam (y-co-ordinate) (Acinetobacter baumanii; [20]): 0.00195; MIC in combination (Acinetobacter baumanii; [21]): 4.88 mg/L; FIC of Aztreonam (y-co-ordinate) [1, 10]: 0.0078; FIC of Aztreonam (y-co-ordinate) [1, 11]: 0.0039; FIC of Aztreonam (y-co-ordinate) [1, 12]: 0.001952; MIC in combination [1, 13]: 9.76 mg/L; FIC of Aztreonam (y-co-ordinate) [1, 22]: 0.039; FIC of Aztreonam (y-co-ordinate) [1, 23]: 0.001952; MIC in combination [1, 24]: 19.53 mg/L; MIC [1]: 5000 mg/L; MIC when taken individually ([1]; single drug, Ertapenem/Aztreonam checkerboard, Table 4): 5000 mg/L; FIC of Aztreonam (y-co-ordinate) [4, 25]: 0.5; FIC of Aztreonam (y-co-ordinate) [4, 26]: 0.25; MIC in combination [4]: 4.88 mg/L; MIC [4]: 39.1 mg/L; FIC of Aztreonam (y-co-ordinate) [2, 14]: 0.00195; FIC of Aztreonam (y-co-ordinate) [2, 15]: 0.0039; FIC of Aztreonam (y-co-ordinate) [2, 16]: 0.0078); FIC of Aztreonam (y-co-ordinate) [2, 11]: 0.016); MIC in combination [2, 17]: 1.22 mg/L; MIC [2, 27]: 1200 mg/L; FIC of Aztreonam (y-coordinate) [2, 28]: 0.016; FIC of Aztreonam (y-coordinate) [2, 29]: 0.078; MIC in combination [2, 30]: 9.76 mg/L; FIC of Aztreonam (y-co-ordinate) [3, 10]: 1.0; FIC of Aztreonam (y-co-ordinate) [3, 11]: 0.5; FIC of Aztreonam (y-co-ordinate) [3, 12]: 0.249; MIC in combination [3]: 9.76 mg/L; MIC [3]: 39.1 mg/L

Which MIC (Acinetobacter baumanii; [18]) does the source give for `C[C@@H](O)[C@H]1C(=O)N2C(C(=O)O)=C(S[C@@H]3CN[C@H](C(=O)N(C)C)C3)[C@H](C)[C@H]12` [Meropenem] here?
The MIC was 19.5 mg/L.

And the “FIC of Meropenem (x-co-ordinate)” value (Acinetobacter baumanii; [19])?
Its value is 0.0625.

And the “FIC of Meropenem (x-co-ordinate)” value (Acinetobacter baumanii; [20])?
The value was 0.125.

And the MIC in combination (Acinetobacter baumanii; [21])?
Its MIC in combination is 1.22 mg/L.

What about the “FIC of Meropenem (x-co-ordinate)” value [1, 22] of the same compound?
Its value is 0.5.

What about the “FIC of Meropenem (x-co-ordinate)” value [1, 23] of the same compound?
Its value is 1.

What about the MIC in combination [1, 24] of the same compound?
The MIC in combination was 6.1 mg/L.

What about the MIC [1] of the same compound?
The MIC was 12.2 mg/L.

And the “FIC of Meropenem (x-co-ordinate)” value [4, 25]?
The value was 0.25.

And the “FIC of Meropenem (x-co-ordinate)” value [4, 26]?
The value was 0.497.

And the “FIC of Meropenem (x-co-ordinate)” value ([4]; Meropenem 0.195 + Aztreonam 4.88)?
The value was 1.0.

And the MIC in combination [4]?
Its MIC in combination is 0.0488 mg/L.

What about the MIC [4] of the same compound?
The MIC was 0.195 mg/L.

And the MIC [2, 27]?
Its MIC is 0.781 mg/L.

And the “FIC of Meropenem (x-co-ordinate)” value [2, 28]?
The value was 0.124.

And the “FIC of Meropenem (x-co-ordinate)” value [2, 29]?
Its value is 0.2496.

And the MIC in combination [2, 30]?
Its MIC in combination is 0.097 mg/L.
